Results from ChEMBL document CHEMBL1177794, “Broad spectrum alkynyl inhibitors of T315I Bcr-Abl” (Bioorg Med Chem Lett, 2010).

How the values were obtained:
[1] = target: Casein kinase I isoform gamma-3 (Homo sapiens) (UniProt Q9Y6M4); assay: Inhibition of CSNK1G3 at 10 uM; values are per cent of control
[2] = target: Activin receptor type-2B (Homo sapiens) (UniProt Q13705); assay: Inhibition of ACVR2B at 10 uM; values are per cent of control
[3] = target: Cyclin-dependent kinase-like 3 (Homo sapiens) (UniProt Q8IVW4); assay: Inhibition of CDKL3 at 10 uM; settings: values are per cent of control
[4] = target: Mitogen-activated protein kinase kinase kinase 3 (Homo sapiens) (UniProt Q99759); assay: Inhibition of MAP3K3 at 10 uM; settings: values are per cent of control
Mitogen-activated protein kinase kinase kinase 3 (Homo sapiens), sequence (Q99759 whole entry): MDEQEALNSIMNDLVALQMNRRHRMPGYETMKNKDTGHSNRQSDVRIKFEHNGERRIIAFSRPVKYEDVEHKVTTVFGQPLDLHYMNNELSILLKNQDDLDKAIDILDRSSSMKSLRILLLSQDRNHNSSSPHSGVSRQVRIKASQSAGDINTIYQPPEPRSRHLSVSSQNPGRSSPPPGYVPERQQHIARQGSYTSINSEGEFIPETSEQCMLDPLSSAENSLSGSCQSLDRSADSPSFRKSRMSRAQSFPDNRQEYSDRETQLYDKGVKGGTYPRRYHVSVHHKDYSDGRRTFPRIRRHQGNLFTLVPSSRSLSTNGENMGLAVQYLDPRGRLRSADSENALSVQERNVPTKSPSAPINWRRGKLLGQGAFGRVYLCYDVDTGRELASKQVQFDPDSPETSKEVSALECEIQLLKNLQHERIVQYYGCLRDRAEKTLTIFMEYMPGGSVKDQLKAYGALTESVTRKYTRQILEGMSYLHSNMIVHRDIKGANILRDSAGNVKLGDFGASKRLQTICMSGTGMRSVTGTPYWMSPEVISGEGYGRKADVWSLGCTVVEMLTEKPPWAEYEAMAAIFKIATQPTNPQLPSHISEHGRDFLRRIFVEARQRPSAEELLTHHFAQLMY

[5] = target: Peripheral plasma membrane protein CASK (Homo sapiens) (UniProt O14936); assay: Inhibition of CASK at 10 uM; settings: values are per cent of control
Peripheral plasma membrane protein CASK (Homo sapiens), sequence (O14936 whole entry): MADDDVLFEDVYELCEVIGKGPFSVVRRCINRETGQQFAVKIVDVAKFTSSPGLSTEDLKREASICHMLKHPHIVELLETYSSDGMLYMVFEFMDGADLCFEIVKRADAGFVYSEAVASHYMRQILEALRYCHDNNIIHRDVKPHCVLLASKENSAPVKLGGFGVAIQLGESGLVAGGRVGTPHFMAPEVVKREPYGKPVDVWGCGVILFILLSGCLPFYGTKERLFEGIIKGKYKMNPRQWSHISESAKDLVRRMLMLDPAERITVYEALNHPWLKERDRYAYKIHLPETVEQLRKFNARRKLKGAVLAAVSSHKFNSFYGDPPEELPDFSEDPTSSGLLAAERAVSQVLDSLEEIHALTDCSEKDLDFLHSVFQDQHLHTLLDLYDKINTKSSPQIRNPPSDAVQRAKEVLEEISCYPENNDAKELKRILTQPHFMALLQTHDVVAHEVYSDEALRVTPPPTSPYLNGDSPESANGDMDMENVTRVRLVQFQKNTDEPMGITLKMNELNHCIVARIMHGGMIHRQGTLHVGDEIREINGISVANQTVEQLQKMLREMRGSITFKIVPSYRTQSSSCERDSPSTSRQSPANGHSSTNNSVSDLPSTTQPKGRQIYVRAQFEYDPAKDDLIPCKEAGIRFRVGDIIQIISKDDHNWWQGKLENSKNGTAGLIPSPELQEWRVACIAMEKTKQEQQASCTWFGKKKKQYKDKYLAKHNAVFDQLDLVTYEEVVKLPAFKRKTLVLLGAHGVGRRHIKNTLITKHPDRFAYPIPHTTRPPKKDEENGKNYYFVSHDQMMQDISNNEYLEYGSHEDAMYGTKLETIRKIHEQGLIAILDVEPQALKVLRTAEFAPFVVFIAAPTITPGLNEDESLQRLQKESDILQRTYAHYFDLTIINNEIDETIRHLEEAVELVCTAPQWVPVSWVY

[6] = target: Mitogen-activated protein kinase kinase kinase 1 (Homo sapiens) (UniProt Q13233); assay: Inhibition of MAP3K1 at 10 uM; settings: values are per cent of control
[7] = target: Serine/threonine-protein kinase MRCK gamma (Homo sapiens) (UniProt Q6DT37); assay: Inhibition of DMPK2 at 10 uM; settings: values are per cent of control
[8] = system: Mast/stem cell growth factor receptor Kit (Homo sapiens), P10721 [V559D]; assay: Inhibition of KIT V559D mutant at 10 uM; settings: values are per cent of control
[9] = target: Dual serine/threonine and tyrosine protein kinase (Homo sapiens) (UniProt Q6XUX3); assay: Inhibition of RIPK5 at 10 uM
[10] = target: Cyclin-dependent kinase 14 (Homo sapiens) (UniProt O94921); assay: Inhibition of PFTK1 at 10 uM; settings: values are per cent of control
[11] = target: Death-associated protein kinase 1 (Homo sapiens) (UniProt P53355); assay: Inhibition of DAPK1 at 10 uM; settings: values are per cent of control
[12] = target: Serine/threonine-protein kinase Nek7 (Homo sapiens) (UniProt Q8TDX7); assay: Inhibition of NEK7 at 10 uM
Serine/threonine-protein kinase Nek7 (Homo sapiens), sequence (Q8TDX7 whole entry, looked up): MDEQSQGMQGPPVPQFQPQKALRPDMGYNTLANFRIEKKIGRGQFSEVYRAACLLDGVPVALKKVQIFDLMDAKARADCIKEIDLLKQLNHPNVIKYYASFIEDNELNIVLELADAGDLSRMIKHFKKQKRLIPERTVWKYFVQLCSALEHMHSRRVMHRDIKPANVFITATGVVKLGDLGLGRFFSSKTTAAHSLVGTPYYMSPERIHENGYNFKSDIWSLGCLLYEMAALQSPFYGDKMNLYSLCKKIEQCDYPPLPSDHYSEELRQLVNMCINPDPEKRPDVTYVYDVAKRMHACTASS

[13] = system: Mast/stem cell growth factor receptor Kit (Homo sapiens), P10721 [A829P]; assay: Inhibition of KIT A829P mutant at 10 uM; settings: values are per cent of control
[14] = target: Mitogen-activated protein kinase 12 (Homo sapiens) (UniProt P53778); assay: Inhibition of p38-gamma at 10 uM; values are per cent of control
[15] = target: Serine/threonine-protein kinase BRSK1 (Homo sapiens) (UniProt Q8TDC3); assay: Inhibition of BRSK1 at 10 uM; settings: values are per cent of control
[16] = target: Serine/threonine-protein kinase Nek6 (Homo sapiens) (UniProt Q9HC98); assay: Inhibition of NEK6 at 10 uM
[17] = target: Ribosomal protein S6 kinase alpha-6 (Homo sapiens) (UniProt Q9UK32); assay: Inhibition of RSK4 N-terminal domain1 at 10 uM
[18] = target: RAF proto-oncogene serine/threonine-protein kinase (Homo sapiens) (UniProt P04049); assay: Inhibition of RAF1 at 10 uM; settings: values are per cent of control
[19] = target: TRAF2 and NCK-interacting protein kinase (Homo sapiens) (UniProt Q9UKE5); assay: Inhibition of TNIK at 10 uM; settings: values are per cent of control
[20] = target: Serine/threonine-protein kinase ULK2 (Homo sapiens) (UniProt Q8IYT8); assay: Inhibition of ULK2 at 10 uM; settings: values are per cent of control
[21] = target: Phosphatidylinositol 5-phosphate 4-kinase type-2 beta (Homo sapiens) (UniProt P78356); assay: Inhibition of PIP5K2B at 10 uM
[22] = target: RAC-beta serine/threonine-protein kinase (Homo sapiens) (UniProt P31751); assay: Inhibition of AKT2 at 10 uM; settings: values are per cent of control
[23] = target: Serine/threonine-protein kinase Nek3 (Homo sapiens) (UniProt P51956); assay: Inhibition of NEK3 at 10 uM
[24] = target: Tyrosine-protein kinase BTK (Homo sapiens) (UniProt Q06187); assay: Inhibition of BTK at 10 uM; values are per cent of control
[25] = target: Cyclin-dependent kinase-like 1 (Homo sapiens) (UniProt Q00532); assay: Inhibition of CDKL1 at 10 uM; settings: values are per cent of control
[26] = target: Mitogen-activated protein kinase kinase kinase 7 (Homo sapiens) (UniProt O43318); assay: Inhibition of TAK1 at 10 uM; values are per cent of control
[27] = target: Serine/threonine-protein kinase LATS2 (Homo sapiens) (UniProt Q9NRM7); assay: Inhibition of LATS2 at 10 uM; values are per cent of control
Serine/threonine-protein kinase LATS2 (Homo sapiens), sequence (Q9NRM7 whole entry, the tested form may be a part): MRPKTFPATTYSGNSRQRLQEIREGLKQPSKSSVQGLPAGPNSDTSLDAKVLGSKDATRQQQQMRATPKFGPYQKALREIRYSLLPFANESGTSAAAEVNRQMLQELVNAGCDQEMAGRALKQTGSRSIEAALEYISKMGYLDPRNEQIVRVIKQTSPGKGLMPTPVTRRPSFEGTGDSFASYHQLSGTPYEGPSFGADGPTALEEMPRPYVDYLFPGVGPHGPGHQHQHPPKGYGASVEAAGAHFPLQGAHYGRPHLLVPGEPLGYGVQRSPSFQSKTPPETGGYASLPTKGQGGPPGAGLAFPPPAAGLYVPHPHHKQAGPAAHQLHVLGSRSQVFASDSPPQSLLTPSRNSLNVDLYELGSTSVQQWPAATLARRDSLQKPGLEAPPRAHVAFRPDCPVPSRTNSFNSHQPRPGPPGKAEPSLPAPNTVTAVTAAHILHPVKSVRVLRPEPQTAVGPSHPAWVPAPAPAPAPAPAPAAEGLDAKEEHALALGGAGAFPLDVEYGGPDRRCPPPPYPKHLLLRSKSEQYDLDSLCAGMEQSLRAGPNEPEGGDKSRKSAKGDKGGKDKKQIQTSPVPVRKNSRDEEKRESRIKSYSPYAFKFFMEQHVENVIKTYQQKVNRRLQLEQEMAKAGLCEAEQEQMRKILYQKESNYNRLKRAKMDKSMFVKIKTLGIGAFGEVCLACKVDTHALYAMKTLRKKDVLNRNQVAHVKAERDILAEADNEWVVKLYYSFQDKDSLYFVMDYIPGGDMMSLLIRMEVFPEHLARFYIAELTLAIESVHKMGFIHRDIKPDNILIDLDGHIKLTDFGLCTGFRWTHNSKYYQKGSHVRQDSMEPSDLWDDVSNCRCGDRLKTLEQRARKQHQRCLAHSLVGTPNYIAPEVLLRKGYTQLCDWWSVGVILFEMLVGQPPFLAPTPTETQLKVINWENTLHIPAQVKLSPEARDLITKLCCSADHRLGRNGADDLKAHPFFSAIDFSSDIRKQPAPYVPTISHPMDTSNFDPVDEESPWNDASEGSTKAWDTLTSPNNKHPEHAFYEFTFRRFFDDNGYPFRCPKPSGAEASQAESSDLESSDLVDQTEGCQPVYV

[28] = target: Tyrosine-protein kinase JAK1 (Homo sapiens) (UniProt P23458); assay: Inhibition of JAK1 JH2 pseudokinase domain at 10 uM; values are per cent of control
[29] = target: Ribosomal protein S6 kinase alpha-1 (Homo sapiens) (UniProt Q15418); assay: Inhibition of RSK1 N-terminal domain1 at 10 uM
[30] = target: Calcium/calmodulin-dependent protein kinase type 1D (Homo sapiens) (UniProt Q8IU85); assay: Inhibition of CAMK1D at 10 uM; settings: values are per cent of control
[31] = system: BaF3; assay: Antiproliferative activity against mouse BAF3 cells expressing Bcr-Abl T315I mutant; type: functional, cell-based
[32] = system: Mast/stem cell growth factor receptor Kit (Homo sapiens), P10721 [V559D,V654A]; assay: Inhibition of KIT V559D, V654A mutant at 10 uM; settings: values are per cent of control
[33] = target: Rhodopsin kinase GRK1 (Homo sapiens) (UniProt Q15835); assay: Inhibition of GRK1 at 10 uM; settings: values are per cent of control
[34] = target: Insulin receptor (Homo sapiens) (UniProt P06213); assay: Inhibition of INSR at 10 uM; settings: values are per cent of control
[35] = target: Calcium/calmodulin-dependent protein kinase type II subunit delta (Homo sapiens) (UniProt Q13557); assay: Inhibition of CAMK2D at 10 uM; settings: values are per cent of control
Calcium/calmodulin-dependent protein kinase type II subunit delta (Homo sapiens), sequence (Q13557 whole entry): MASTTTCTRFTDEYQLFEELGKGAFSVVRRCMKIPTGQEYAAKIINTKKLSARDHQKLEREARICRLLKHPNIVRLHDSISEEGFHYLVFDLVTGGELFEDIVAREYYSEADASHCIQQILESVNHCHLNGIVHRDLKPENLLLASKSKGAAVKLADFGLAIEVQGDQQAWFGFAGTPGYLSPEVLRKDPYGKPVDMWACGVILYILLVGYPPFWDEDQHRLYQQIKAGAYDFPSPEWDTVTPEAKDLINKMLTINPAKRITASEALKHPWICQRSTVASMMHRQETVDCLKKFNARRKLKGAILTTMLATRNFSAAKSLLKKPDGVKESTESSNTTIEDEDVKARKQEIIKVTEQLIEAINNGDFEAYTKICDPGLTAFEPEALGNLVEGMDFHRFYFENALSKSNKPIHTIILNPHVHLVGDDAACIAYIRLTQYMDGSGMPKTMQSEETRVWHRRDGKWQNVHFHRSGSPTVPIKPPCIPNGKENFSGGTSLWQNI

[36] = target: Casein kinase II subunit alpha (Homo sapiens) (UniProt P68400); assay: Inhibition of CSNK2A1 at 10 uM; settings: values are per cent of control
[37] = target: Proto-oncogene tyrosine-protein kinase receptor Ret (Homo sapiens) (UniProt P07949); assay: Inhibition of RET at 10 uM; values are per cent of control
[38] = system: Epidermal growth factor receptor (Homo sapiens), P00533 [UNDEFINED MUTATION]; assay: Inhibition of EGFR L747-E749del, A750P mutant at 10 uM; values are per cent of control
Epidermal growth factor receptor (Homo sapiens), P00533 [UNDEFINED MUTATION], sequence (P00533 whole entry, looked up, stated change not applied): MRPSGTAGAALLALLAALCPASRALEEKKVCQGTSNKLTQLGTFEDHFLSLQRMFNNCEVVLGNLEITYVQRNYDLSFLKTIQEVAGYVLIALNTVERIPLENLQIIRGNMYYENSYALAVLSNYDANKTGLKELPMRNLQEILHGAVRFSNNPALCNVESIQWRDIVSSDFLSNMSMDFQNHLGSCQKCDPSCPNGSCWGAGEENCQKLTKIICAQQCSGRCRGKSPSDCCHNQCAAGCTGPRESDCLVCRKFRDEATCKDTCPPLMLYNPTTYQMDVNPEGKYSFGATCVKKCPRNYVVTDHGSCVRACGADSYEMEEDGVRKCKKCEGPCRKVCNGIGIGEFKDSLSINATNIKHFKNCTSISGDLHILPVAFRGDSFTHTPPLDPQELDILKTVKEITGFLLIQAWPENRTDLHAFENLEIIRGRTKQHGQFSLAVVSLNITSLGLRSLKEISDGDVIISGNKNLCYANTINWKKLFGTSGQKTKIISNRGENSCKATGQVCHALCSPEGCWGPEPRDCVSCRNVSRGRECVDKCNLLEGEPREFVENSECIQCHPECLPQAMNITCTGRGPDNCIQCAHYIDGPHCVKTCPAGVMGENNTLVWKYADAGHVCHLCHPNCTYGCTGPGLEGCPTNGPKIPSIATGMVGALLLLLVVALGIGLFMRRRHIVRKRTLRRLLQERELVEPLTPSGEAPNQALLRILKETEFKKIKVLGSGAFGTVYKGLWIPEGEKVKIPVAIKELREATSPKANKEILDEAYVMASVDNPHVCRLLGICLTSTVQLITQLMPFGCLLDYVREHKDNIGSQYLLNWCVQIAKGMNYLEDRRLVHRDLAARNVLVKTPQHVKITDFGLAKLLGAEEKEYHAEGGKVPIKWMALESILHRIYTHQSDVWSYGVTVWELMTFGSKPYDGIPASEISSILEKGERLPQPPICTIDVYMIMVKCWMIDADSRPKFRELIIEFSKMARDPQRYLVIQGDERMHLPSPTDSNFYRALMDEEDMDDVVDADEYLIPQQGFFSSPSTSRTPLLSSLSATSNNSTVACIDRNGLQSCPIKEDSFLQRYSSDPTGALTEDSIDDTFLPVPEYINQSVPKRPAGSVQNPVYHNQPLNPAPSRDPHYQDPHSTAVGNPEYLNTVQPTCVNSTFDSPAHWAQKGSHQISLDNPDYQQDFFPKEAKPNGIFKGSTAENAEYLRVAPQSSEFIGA

[39] = target: Serine/threonine-protein kinase 25 (Homo sapiens) (UniProt O00506); assay: Inhibition of YSK1 at 10 uM; settings: values are per cent of control
Serine/threonine-protein kinase 25 (Homo sapiens), sequence (O00506 whole entry, looked up): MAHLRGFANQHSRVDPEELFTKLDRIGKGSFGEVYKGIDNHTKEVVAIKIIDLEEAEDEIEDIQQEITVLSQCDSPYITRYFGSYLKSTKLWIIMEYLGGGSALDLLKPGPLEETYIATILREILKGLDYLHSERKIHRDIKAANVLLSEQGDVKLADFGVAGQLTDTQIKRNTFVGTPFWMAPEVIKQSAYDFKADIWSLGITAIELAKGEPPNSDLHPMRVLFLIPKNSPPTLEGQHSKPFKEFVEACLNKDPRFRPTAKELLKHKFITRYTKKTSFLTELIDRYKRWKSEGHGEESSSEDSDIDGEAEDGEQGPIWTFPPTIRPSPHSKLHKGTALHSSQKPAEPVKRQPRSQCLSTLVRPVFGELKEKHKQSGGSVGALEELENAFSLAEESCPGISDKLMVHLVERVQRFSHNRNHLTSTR

[40] = target: Serine/threonine-protein kinase Nek5 (Homo sapiens) (UniProt Q6P3R8); assay: Inhibition of NEK5 at 10 uM
[41] = target: Insulin receptor-related protein (Homo sapiens) (UniProt P14616); assay: Inhibition of INSRR at 10 uM; settings: values are per cent of control
[42] = target: Mitogen-activated protein kinase kinase kinase 11 (Homo sapiens) (UniProt Q16584); assay: Inhibition of MLK3 at 10 uM

With `CCN1CCN(Cc2ccc(NC(=O)c3ccc(C)c(C#Cc4cnc5[nH]ccc5c4)c3)cc2C(F)(F)F)CC1` the level, % of control [1] was 22%, the level, % of control [2] was 23% and the residual binding, % of control [3] was 1.9%. For the same compound, the residual binding, % of control [4] was 1.4%, the residual binding, % of control [5] was 100% and the residual binding, % of control [6] was 96%. It also gave a residual binding, % of control [7] of 35%, a residual binding, % of control [8] of 0% and an inhibition [9] of 8.2%. For the same compound, the residual binding, % of control [10] was 1.6%, the residual binding, % of control [11] was 94% and the inhibition [12] was 50%. For the same compound, the residual binding, % of control [13] was 24%, the % of control [14] was 5.7% and the residual binding, % of control [15] was 100%. For the same compound, the inhibition [16] was 73%, the inhibition [17] was 28% and the residual binding, % of control [18] was 0.95%. The residual binding, % of control [19] was 1.6%, the residual binding, % of control [20] was 61% and the inhibition [21] was 7.7%. It also gave a residual binding, % of control [22] of 4.6%, an inhibition [23] of 49% and a level, % of control [24] of 1.2%. It also gave a residual binding, % of control [25] of 89%, a % of control [26] of 0.25% and a level, % of control [27] of 7%. The level, % of control [28] was 74%, the inhibition [29] was 34% and the residual binding, % of control [30] was 68%. For the same compound, the EC50 [31] was 80 nM, the residual binding, % of control [32] was 1.4% and the residual binding, % of control [33] was 88%. The residual binding, % of control [34] was 53%, the residual binding, % of control [35] was 100% and the residual binding, % of control [36] was 100%. The level, % of control [37] was 0%, the level, % of control [38] was 0.25% and the residual binding, % of control [39] was 12%. The inhibition [40] was 0.65%, the residual binding, % of control [41] was 68% and the inhibition [42] was 3%.
For `CCN1CCN(Cc2ccc(NC(=O)c3ccc(C)c(C#Cc4cccnc4)c3)cc2C(F)(F)F)CC1`, the level, % of control [1] was 85%, the level, % of control [2] was 96% and the residual binding, % of control [3] was 0.65%. It also gave a residual binding, % of control [4] of 1.4%, a residual binding, % of control [5] of 100% and a residual binding, % of control [6] of 94%. The residual binding, % of control [7] was 77%, the residual binding, % of control [8] was 0% and the inhibition [9] was 27%. For the same compound, the residual binding, % of control [10] was 0.85%, the residual binding, % of control [11] was 100% and the inhibition [12] was 88%. The residual binding, % of control [13] was 27%, the % of control [14] was 2.7% and the residual binding, % of control [15] was 84%. The inhibition [16] was 90%, the inhibition [17] was 47% and the residual binding, % of control [18] was 0.5%. For the same compound, the residual binding, % of control [19] was 1.8%, the residual binding, % of control [20] was 50% and the inhibition [21] was 58%. It also gave a residual binding, % of control [22] of 30%, an inhibition [23] of 53% and a level, % of control [24] of 2%. For the same compound, the residual binding, % of control [25] was 88%, the % of control [26] was 0.2% and the level, % of control [27] was 7.6%. The level, % of control [28] was 90%, the inhibition [29] was 53% and the residual binding, % of control [30] was 72%. For the same compound, the EC50 [31] was 92 nM, the residual binding, % of control [32] was 4.2% and the residual binding, % of control [33] was 100%. The residual binding, % of control [34] was 58%, the residual binding, % of control [35] was 100% and the residual binding, % of control [36] was 100%. It also gave a level, % of control [37] of 0%, a level, % of control [38] of 1.2% and a residual binding, % of control [39] of 16%. It also gave an inhibition [40] of 4.8%, a residual binding, % of control [41] of 79% and an inhibition [42] of 17%.
